#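 Cells were grown in 96-well plates and exposed to each compound for 48 hours at five concentrations; endpoints were interpolated linearly between bracketing concentrations, or set to the highest concentration if not reached. GI50 is the concentration that inhibits growth by half. TGI marks complete inhibition of growth.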
# Key:
# Assay in all cases: NCI-60 cell line screen, 48 h
# SW-620 colon = system: SW-620 colon
# MALME-3M melanoma = system: MALME-3M melanoma
# A498 renal = system: A498 renal
# HCT-15 colon = system: HCT-15 colon
# MDA-MB-435 = system: MDA-MB-435
# 786-0 renal = system: 786-0 renal
# HCC-2998 colon = system: HCC-2998 colon
# HCT-116 colon = system: HCT-116 colon
# EKVX NSCLC = system: EKVX NSCLC
# NCI/ADR-RES ovarian = system: NCI/ADR-RES ovarian
# SF-539 CNS = system: SF-539 CNS
# OVCAR-8 ovarian = system: OVCAR-8 ovarian
# A549 NSCLC = system: A549 NSCLC
# NCI-H460 lung = system: NCI-H460 lung
# MOLT-4 leukemia = system: MOLT-4 leukemia
# OVCAR-4 ovarian = system: OVCAR-4 ovarian
# HT29 colon = system: HT29 colon
# UACC-62 melanoma = system: UACC-62 melanoma
# RPMI-8226 leukemia = system: RPMI-8226 leukemia
# MDA-MB-231 breast = system: MDA-MB-231 breast
# RXF 393 renal = system: RXF 393 renal
# SR leukemia = system: SR leukemia
# HL-60(TB) leukemia = system: HL-60(TB) leukemia
# UO-31 renal = system: UO-31 renal
# SNB-19 CNS = system: SNB-19 CNS
# LOX IMVI melanoma = system: LOX IMVI melanoma
# COLO 205 colon = system: COLO 205 colon
# SN12C renal = system: SN12C renal
# SK-MEL-2 melanoma = system: SK-MEL-2 melanoma
# CAKI-1 renal = system: CAKI-1 renal
# NCI-H226 lung = system: NCI-H226 lung
# CCRF-CEM leukemia = system: CCRF-CEM leukemia
# SF-268 CNS = system: SF-268 CNS
# UACC-257 melanoma = system: UACC-257 melanoma
# MCF7 breast = system: MCF7 breast
# SK-MEL-5 melanoma = system: SK-MEL-5 melanoma
# NCI-H522 lung = system: NCI-H522 lung
# HS 578T breast = system: HS 578T breast
# SF-295 CNS = system: SF-295 CNS
# U251 CNS = system: U251 CNS
# SK-MEL-28 melanoma = system: SK-MEL-28 melanoma
# TK-10 renal = system: TK-10 renal
# M14 melanoma = system: M14 melanoma
# IGROV1 ovarian = system: IGROV1 ovarian
# BT-549 breast = system: BT-549 breast
# SK-OV-3 ovarian = system: SK-OV-3 ovarian
# KM12 colon = system: KM12 colon
# NCI-H23 lung = system: NCI-H23 lung
# HOP-62 NSCLC = system: HOP-62 NSCLC
# ACHN renal = system: ACHN renal
# SNB-75 CNS = system: SNB-75 CNS
# OVCAR-5 ovarian = system: OVCAR-5 ovarian
# DU-145 prostate = system: DU-145 prostate
# PC-3 prostate = system: PC-3 prostate
# OVCAR-3 ovarian = system: OVCAR-3 ovarian
# K-562 leukemia = system: K-562 leukemia
structure (smiles),measurement,setting,value
O=C1c2ccccc2C(=O)c2c1c(=O)c(=O)c1ccccc1c(=O)n2Cc1ccccc1,GI50,SW-620 colon,> 100 µM
same,TGI,SW-620 colon,> 100 µM
same,GI50,MALME-3M melanoma,28.6 µM
same,TGI,MALME-3M melanoma,80.1 µM
same,GI50,A498 renal,> 100 µM
same,TGI,A498 renal,> 100 µM
same,GI50,HCT-15 colon,> 100 µM
same,TGI,HCT-15 colon,> 100 µM
same,GI50,MDA-MB-435,> 100 µM
same,TGI,MDA-MB-435,> 100 µM
same,GI50,786-0 renal,> 100 µM
same,TGI,786-0 renal,> 100 µM
same,GI50,HCC-2998 colon,84.2 µM
same,TGI,HCC-2998 colon,> 100 µM
same,GI50,HCT-116 colon,> 100 µM
same,TGI,HCT-116 colon,> 100 µM
same,GI50,EKVX NSCLC,> 100 µM
same,TGI,EKVX NSCLC,> 100 µM
same,GI50,NCI/ADR-RES ovarian,> 100 µM
same,TGI,NCI/ADR-RES ovarian,> 100 µM
same,GI50,SF-539 CNS,> 100 µM
same,TGI,SF-539 CNS,> 100 µM
same,GI50,OVCAR-8 ovarian,> 100 µM
same,TGI,OVCAR-8 ovarian,> 100 µM
same,GI50,A549 NSCLC,47.2 µM
same,TGI,A549 NSCLC,> 100 µM
same,GI50,NCI-H460 lung,50.7 µM
same,TGI,NCI-H460 lung,> 100 µM
same,GI50,MOLT-4 leukemia,38.2 µM
same,TGI,MOLT-4 leukemia,> 100 µM
same,GI50,OVCAR-4 ovarian,> 100 µM
same,TGI,OVCAR-4 ovarian,> 100 µM
same,GI50,HT29 colon,> 100 µM
same,TGI,HT29 colon,> 100 µM
same,GI50,UACC-62 melanoma,66.3 µM
same,TGI,UACC-62 melanoma,> 100 µM
same,GI50,RPMI-8226 leukemia,28.5 µM
same,TGI,RPMI-8226 leukemia,85.2 µM
same,GI50,MDA-MB-231 breast,> 100 µM
same,TGI,MDA-MB-231 breast,> 100 µM
same,GI50,RXF 393 renal,> 100 µM
same,TGI,RXF 393 renal,> 100 µM
same,GI50,SR leukemia,29 µM
same,TGI,SR leukemia,> 100 µM
same,GI50,HL-60(TB) leukemia,41.8 µM
same,TGI,HL-60(TB) leukemia,> 100 µM
same,GI50,UO-31 renal,> 100 µM
same,TGI,UO-31 renal,> 100 µM
same,GI50,SNB-19 CNS,> 100 µM
same,TGI,SNB-19 CNS,> 100 µM
same,GI50,LOX IMVI melanoma,92.9 µM
same,TGI,LOX IMVI melanoma,> 100 µM
same,GI50,COLO 205 colon,> 100 µM
same,TGI,COLO 205 colon,> 100 µM
same,GI50,SN12C renal,> 100 µM
same,TGI,SN12C renal,> 100 µM
same,GI50,SK-MEL-2 melanoma,> 100 µM
same,TGI,SK-MEL-2 melanoma,> 100 µM
same,GI50,CAKI-1 renal,> 100 µM
same,TGI,CAKI-1 renal,> 100 µM
same,GI50,NCI-H226 lung,> 100 µM
same,TGI,NCI-H226 lung,> 100 µM
same,GI50,CCRF-CEM leukemia,7.67 µM
same,TGI,CCRF-CEM leukemia,> 100 µM
same,GI50,SF-268 CNS,> 100 µM
same,TGI,SF-268 CNS,> 100 µM
same,GI50,UACC-257 melanoma,> 100 µM
same,TGI,UACC-257 melanoma,> 100 µM
same,GI50,MCF7 breast,79.1 µM
same,TGI,MCF7 breast,> 100 µM
same,GI50,SK-MEL-5 melanoma,15.8 µM
same,TGI,SK-MEL-5 melanoma,47.2 µM
same,GI50,NCI-H522 lung,> 100 µM
same,TGI,NCI-H522 lung,> 100 µM
same,GI50,HS 578T breast,> 100 µM
same,TGI,HS 578T breast,> 100 µM
same,GI50,SF-295 CNS,53.1 µM
same,TGI,SF-295 CNS,> 100 µM
same,GI50,U251 CNS,> 100 µM
same,TGI,U251 CNS,> 100 µM
same,GI50,SK-MEL-28 melanoma,> 100 µM
same,TGI,SK-MEL-28 melanoma,> 100 µM
same,GI50,TK-10 renal,> 100 µM
same,TGI,TK-10 renal,> 100 µM
same,GI50,M14 melanoma,36.6 µM
same,TGI,M14 melanoma,> 100 µM
same,GI50,IGROV1 ovarian,79.2 µM
same,TGI,IGROV1 ovarian,> 100 µM
same,GI50,BT-549 breast,> 100 µM
same,TGI,BT-549 breast,> 100 µM
same,GI50,SK-OV-3 ovarian,> 100 µM
same,TGI,SK-OV-3 ovarian,> 100 µM
same,GI50,KM12 colon,81.9 µM
same,TGI,KM12 colon,> 100 µM
same,GI50,NCI-H23 lung,8.51 µM
same,TGI,NCI-H23 lung,> 100 µM
same,GI50,HOP-62 NSCLC,> 100 µM
same,TGI,HOP-62 NSCLC,> 100 µM
same,GI50,ACHN renal,> 100 µM
same,TGI,ACHN renal,> 100 µM
same,GI50,SNB-75 CNS,> 100 µM
same,TGI,SNB-75 CNS,> 100 µM
same,GI50,OVCAR-5 ovarian,> 100 µM
same,TGI,OVCAR-5 ovarian,> 100 µM
same,GI50,DU-145 prostate,47.9 µM
same,TGI,DU-145 prostate,> 100 µM
same,GI50,PC-3 prostate,> 100 µM
same,TGI,PC-3 prostate,> 100 µM
same,GI50,OVCAR-3 ovarian,88.8 µM
same,TGI,OVCAR-3 ovarian,> 100 µM
same,GI50,K-562 leukemia,53.7 µM
same,TGI,K-562 leukemia,> 100 µM

# — PubChem BioAssay (NCI)
